This note sets out measurements from patent US20140120075A1, “Nanozyme Compositions and Methods of Synthesis and Use Thereof” (Board of Regents of the University of Nebraska, priority 2011, published 2014).

The target of assay [1] is Catalase (from bovine liver), DTSSP cross-linked cl-nanozyme with PEG-pLL50, purified (C2p) (Bos taurus, UniProt P00432). Here is the method:
(§1) SOD1 (from bovine erythrocytes), hydrogen peroxide (H2O2), 2,3,5-triphenyltetrazolium chloride (TTC) and copper standards for Inductively Coupled Plasma Mass Spectroscopy (ICP-MS)—TraceCERT®, 1000 mg/L Cu in nitric acid) were from Sigma-Aldrich (St. Louis, Mo.). Catalase (from bovine liver) was from Calbiochem (Gibbstown, N.J.). PEG-pLL50 was from Alamanda Polymers™ (Huntsville, Ala.). […] Cross-linkers 3,3′-dithiobis(sulfosuccinimidylpropionate) (DTSSP) and bis(sulfosuccinimidyl)suberate (BS^3) were from Thermo Fisher Scientific (Rockford, Ill.). NAP™ desalting columns and HiPrep 16/60 Sephacryl S-400 HR column were from GE Healthcare (Piscataway, N.J.). Criterion Tris-HCl gels and Precision Plus Protein™ All Blue Standards were from Bio-Rad (Hercules, Calif.). SYPRO® Ruby protein gel stain and cell culture reagents were purchased from Invitrogen (Carlsbad, Calif.). CellTiter 96® AQueous One Solution Cell Proliferation Assay (MTS) was from Promega (Madison, Wis.). LumiMax Superoxide Anion Detection Kit was from Agilent Technologies, Inc. (Santa Clara, Calif.). All other reagents and supplies were from Fisher Scientific (Pittsburgh, Pa.) unless noted otherwise.
(§2) Enzyme and polymer stock solutions were prepared in 10 mM HEPES (pH 7.4) and 10 mM HEPES-buffered saline (HBS; pH 7.4) for SOD1 and catalase, respectively. Non-cross-linked BICs (Z+/−=2) were prepared as described (Klyachko et al. (2012) Nanomed. Nanotechnol. Biol. Med., 8:119-129). Targeted degree of cross-linking was defined as the molar ratio between cross-linker (DTSSP/BS^3) and pLL amines. Precalculated amount of the respective cross-linker was dissolved in the reaction buffer (HEPES/HBS), quickly added to BICs, and the reaction mixture was briefly vortexed and incubated for 2 hours on ice. Unreacted crosslinker was desalted using NAP™ columns following manufacturer's instructions. Cl-Nanozymes were purified using size exclusion chromatography (SEC) (small/intermediate scale) or centrifugal filtration (large scale). SEC was carried out using an ÄKTA™ Fast Protein Liquid Chromatography (FPLC) (Amersham Biosciences, Piscataway, N.J.) system. DTSSP cl-nanozymes were lyophilized overnight, reconstituted in deionized water (DW), loaded onto a HiPrep 16/60 Sephacryl™ S-400 HR column and eluted using 10 mM HBS (pH 7.4) at a flow rate of 0.5 mL/minute. Prior to each experiment, the column was pre-conditioned with free block copolymer (PEG-pLL50) to minimize non-specific adsorption of the cl-nanozymes (Boeckle et al. (2004) J. Gene Med., 6:1102-1111). Fractions spanning each distinct peak were pooled, concentrated using Amicon® Ultra-4 Centrifugal Filter Units with a molecular weight cutoff (MWCO) of 3000 Da and desalted using NAP™ columns as needed. Protein concentration was determined using Micro BCA™ Protein Assay Kit. In large-scale preparations, clnanozymes were purified by centrifugal filtration using Macrosep™ Centrifugal Device (Pall Life Sciences, Ann Arbor, Mich.) with a MWCO of either 100 kDa (for SOD1) or 1000 kDa (for catalase). Briefly, unreacted cross-linker in cross-linked BICs was desalted using NAP™ columns and eluate was collected in 10 mM HEPES containing 0.3 M NaCl (pH 7.4). Samples were loaded onto the centrifugal device and concentrated to 10% original volume by centrifuging at 4500 RPM. Two rounds of purification were done in 10 mM HEPES buffer containing 0.3 M NaCl (pH 7.4) and the third round was done in 10 mM HEPES buffer (pH 7.4). […]

Assay [2] addresses Catalase (from bovine liver), DTSSP cross-linked cl-nanozyme with PEG-pLL50, non-purified (C2) (Bos taurus, UniProt P00432). Here is the method: as §1, §2
Assay [3] has as its target Catalase (from bovine liver), native (nC) (Bos taurus, UniProt P00432). The note with it: 50 mM phosphate buffer pH 7.4. Here is the method: as §1

Chain of Catalase (from bovine liver), DTSSP cross-linked cl-nanozyme with PEG-pLL50, purified (C2p) (P00432 whole entry): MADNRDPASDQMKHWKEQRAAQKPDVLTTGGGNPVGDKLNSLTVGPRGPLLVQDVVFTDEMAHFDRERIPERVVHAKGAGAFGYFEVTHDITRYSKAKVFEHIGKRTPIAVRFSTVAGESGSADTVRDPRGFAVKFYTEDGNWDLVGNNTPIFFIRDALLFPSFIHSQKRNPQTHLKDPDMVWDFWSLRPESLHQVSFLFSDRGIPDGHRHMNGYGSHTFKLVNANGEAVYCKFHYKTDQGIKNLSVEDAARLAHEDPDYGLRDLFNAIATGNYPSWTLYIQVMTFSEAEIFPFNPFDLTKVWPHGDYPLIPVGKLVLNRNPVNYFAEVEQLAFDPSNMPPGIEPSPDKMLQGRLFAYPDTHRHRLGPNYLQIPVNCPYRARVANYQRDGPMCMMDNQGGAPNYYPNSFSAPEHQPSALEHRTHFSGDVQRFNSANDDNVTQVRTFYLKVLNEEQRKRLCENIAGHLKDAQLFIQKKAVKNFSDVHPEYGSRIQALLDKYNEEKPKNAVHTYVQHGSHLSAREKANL
Chain of Catalase (from bovine liver), DTSSP cross-linked cl-nanozyme with PEG-pLL50, non-purified (C2) (P00432 whole entry): as above
Chain of Catalase (from bovine liver), native (nC) (P00432 whole entry): as above

On to `OO` [H2O2, hydrogen peroxide], for which the Kcat/Km amounted to 7.75e+06 M⁻¹ s⁻¹ in assay [1] (50 mM phosphate buffer pH 7.4, C2p); 1.66e+07 M⁻¹ s⁻¹ in assay [2] (50 mM phosphate buffer pH 7.4, C2); 1.5e+07 M⁻¹ s⁻¹ in assay [3]. Besides, the “catalytic efficiency (kcat/Km), per cent lower than nC” value in assay [1] (purified cl-nanozyme (C2p) compared to native enzyme (nC)) is recorded as “ca. 48%”. The “catalytic efficiency (kcat/Km), per cent lower than C2” value in assay [1] (purified cl-nanozyme (C2p) compared to non-purified (C2)) is on record as approximately 53%. For the same molecule, the “increase in Km value” in assay [2] (non-purified cl-nanozyme (C2) compared to native catalase (nC)) is listed as “ca. 1.8 fold”.
